Source: patent US20190151320A1, “APPLICATION OF MAPK SIGNALING PATHWAY INHIBITOR IN MANUFACTURE OF DRUGS FOR DELAYING DEGENERATION OF DOPAMINERGIC NEURONS” (FUZHOU UNIVERSITY, priority 2016, published 2019)

Test system: dopaminergic neurons in the PPL brain region
Assay: Dopaminergic neuron morphology and quantity in PPL brain regions of PD model fruit flies after 30 days of drug feeding
Type: in vivo, Drosophila melanogaster
Conditions: fruit fly PD models (alpha-synuclein overexpression, Lrrk2 overexpression, Parkin mutation, Pink1 mutation); for effect on degenerative death/loss of dopaminergic neurons in the PPL brain region (morphology and quantity): 1 μg/mL in feed for 30 days
Procedure: Animal models of PD caused by alpha-synuclein transgene overexpression, Lrrk2 transgene overexpression, Parkin gene mutation and Pink1 gene mutation were established in the four model groups. Each group includes 90 fruit flies and each group was further equally divided into three groups, drug-feeding groups and non-drug-feeding control group, for testing. Starting from imago at the age of 5 days, the drug-feeding group was continuously fed with 0.1 μg/mL, 1 μg/mL U0126 (U0126 is dissolved in 1% DMSO) for 30 days and the non-drug-feeding control group was fed with 1% DMSO as a solvent control. After 30 days of drug or control solvent feeding, the brains of fruit flies were dissected and the dopamine neurons were labeled by the whole-tissue immunostaining of the brains of the fruit flies with an anti-dopamine hydroxylase antibody. The morphology and quantity of the dopamine neurons in the PPL regions in the brains of the fruit flies were observed microscopically to determine the effect of U0126 on the dopaminergic neurons in the local brain regions.
Animal models of PD caused by alpha-synuclein transgene overexpression, Lrrk2 transgene overexpression, Parkin gene mutation and Pink1 gene mutation were established in the four model groups. Each group includes 90 fruit flies and each group was further equally divided into 2 drug-feeding groups and 1 non-drug-feeding control group for testing. […] The morphology and quantity of the dopamine neurons in the PPL regions in the brains of the fruit flies were observed microscopically to determine the effect of PD0325901 on the dopaminergic neurons in the local brain regions of the fruit flies.
Animal models of PD caused by alpha-synuclein transgene overexpression, Lrrk2 transgene overexpression, Parkin gene mutation and Pink1 gene mutation were established in the four model groups. […] The morphology and quantity of the dopamine neurons in the PPL regions in the brains of the fruit flies were observed microscopically to determine the effect of trametinib on the dopaminergic neurons in the local brain regions of the fruit flies.

Row | SMILES | effect on degenerative death/loss of dopaminergic neurons in the PPL brain region (morphology and quantity) | effect on degenerative death of dopaminergic neurons in the PPL brain region (morphology and quantity) (16.24 μM/mL in feed for 30 days)
1 | N#CC(=C(/N)Sc1ccccc1N)/C(C#N)=C(\N)Sc1ccccc1N [U0126] | can effectively reverse the degenerative death of the dopaminergic neurons | 
2 | CC(=O)Nc1cccc(-n2c(=O)n(C3CC3)c(=O)c3c(Nc4ccc(I)cc4F)n(C)c(=O)c(C)c32)c1 [trametinib] |  | can effectively reverse the degenerative death of the dopaminergic neurons
3 | O=C(NOC[C@H](O)CO)c1ccc(F)c(F)c1Nc1ccc(I)cc1F [PD0325901] | can effectively reverse the degenerative loss of the dopaminergic neurons | 
